These results are taken from patent US20040028675A1, “Compositions for the treatment of lupus” (Zarlink Semiconductor AB, priority 2001, published 2004).

Test [1] concerns the target T1, Kv1.3 channel (Homo sapiens, UniProt P22001). Briefly: Screening tests of ion channel function. The settings on record: screening tests by experts in ion channel function.
Test [2] deals with patients with Lupus (Systemic Lupus Erythematosus). The experiment in a line: Treatment of patients with Lupus (SLE) with the inventive composition.
Test [3] shares this test system. The settings on record: osteoarthritis or Lupus caused joint inflammation; cited from earlier work.
In test [4] the target is T1, Kv1.3 channel. Particulars: independently demonstrated; cited from earlier work.

T1 sequence (P22001 whole entry): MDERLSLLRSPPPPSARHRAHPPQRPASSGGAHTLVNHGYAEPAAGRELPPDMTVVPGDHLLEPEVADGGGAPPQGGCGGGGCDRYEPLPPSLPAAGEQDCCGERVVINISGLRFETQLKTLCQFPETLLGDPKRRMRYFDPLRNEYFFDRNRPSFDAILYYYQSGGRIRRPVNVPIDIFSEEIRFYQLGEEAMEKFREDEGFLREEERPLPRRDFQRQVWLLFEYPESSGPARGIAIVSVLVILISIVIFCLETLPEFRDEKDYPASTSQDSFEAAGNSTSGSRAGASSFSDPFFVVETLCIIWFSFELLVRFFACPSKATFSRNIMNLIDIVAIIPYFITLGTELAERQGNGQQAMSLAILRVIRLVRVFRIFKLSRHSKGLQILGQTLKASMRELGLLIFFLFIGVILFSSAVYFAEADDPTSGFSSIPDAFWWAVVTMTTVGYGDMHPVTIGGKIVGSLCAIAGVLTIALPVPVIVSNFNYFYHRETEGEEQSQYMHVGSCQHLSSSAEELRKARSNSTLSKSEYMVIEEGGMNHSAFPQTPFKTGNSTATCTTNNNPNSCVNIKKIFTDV

Regarding `O=c1cc(-c2ccc(O)c(O)c2)oc2cc(O)cc(O)c12` [Luteolin], on Kv1.3 channel [1], the “effectiveness in tests of ion channel function” value was “even more effective than Quercetin”. For the same molecule, the “effectiveness of the bioflavonoid in the inventive formula (in place of Quercetin)” value in test [2] (limited tests) was “somewhat more effective than Quercetin”.
For Bromelain, the “ameliorating joint pain, Bromelain alone” value in test [3] is “not effective”.
With `O=c1c(O)c(-c2ccc(O)c(O)c2)oc2cc(O)cc(O)c12` [Quercetin], at Kv1.3 channel [1], the “effectiveness in tests of ion channel function” value was “very effective”. Also, the “modulating the conduction by the Kv1.3 potassium channel” value at Kv1.3 channel [4] is given as “very effective”.
Regarding `O=c1c(O)c(-c2cc(O)c(O)c(O)c2)oc2cc(O)cc(O)c12` [Myricetin], in test [2] (human, in vivo), the “effectiveness of the bioflavonoid in the inventive formula (in place of Quercetin)” value was “somewhat effective”.
